Like-named read-outs stand apart in the source and are kept apart here.
Columns and labels:
K403R [1] = target: T1, K403R (Zea mays, UniProt P55241+Q947C0, K403R); details: read-out: KM ATP
Excerpt: (§1) All V versus S plots were fitted using non-linear regression analysis and the following equation, v = VmaxS/(Km + S), where v is the measured velocity, Vmax is the maximum velocity, S is the substrate concentration.

wt (SH2-WT/BT2-WT) [2] = target: T2, wt (SH2-WT/BT2-WT) (Zea mays, UniProt P55241+Q947C0); details: read-out: KM ATP
Excerpt: as §1

wt (SH2-WT/BT2-WT) [3] = target: T2, wt (SH2-WT/BT2-WT); details: read-out: ATP Km (absence of 3-PGA)
Excerpt: Activity in the absence of the activator 3PGA was examined. While 3PGA is a noted activator for plant AGPase, the mechanism of activation differs for the various AGPases. […] Thus, the term “activation fold” in the literature is merely an activity reported at single fixed substrate concentrations.
The small subunit mutant, MP, contains the first 198 amino acids of the small subunit of the maize endosperm enzyme and the last 277 amino acids from the potato tuber enzyme resulting in thirty-three amino acid sites that differ from the maize endosperm enzyme ([Cross et al., 2004]).

SH2-ISM [4] = target: T3, SH2-ISM (Zea mays, UniProt P55241+Q947C0, Q96G/D161G/A443R); assay: Pi inhibition study without 3-PGA, ATP varied (0.1-3 mM) at fixed Pi levels (10-30 mM) and sub-saturating G-1-P (1 mM), fit to mixed-type inhibition equations.; format: biochemical; details: read-out: Km (mM), varied substrate ATP, Pi inhibition in the absence of 3-PGA
T3 construct: SH2-ISM with wild type BT2 (SH2-ISM/BT2-WT), E. coli, purified
T3 sequence (Q947C0 1-475): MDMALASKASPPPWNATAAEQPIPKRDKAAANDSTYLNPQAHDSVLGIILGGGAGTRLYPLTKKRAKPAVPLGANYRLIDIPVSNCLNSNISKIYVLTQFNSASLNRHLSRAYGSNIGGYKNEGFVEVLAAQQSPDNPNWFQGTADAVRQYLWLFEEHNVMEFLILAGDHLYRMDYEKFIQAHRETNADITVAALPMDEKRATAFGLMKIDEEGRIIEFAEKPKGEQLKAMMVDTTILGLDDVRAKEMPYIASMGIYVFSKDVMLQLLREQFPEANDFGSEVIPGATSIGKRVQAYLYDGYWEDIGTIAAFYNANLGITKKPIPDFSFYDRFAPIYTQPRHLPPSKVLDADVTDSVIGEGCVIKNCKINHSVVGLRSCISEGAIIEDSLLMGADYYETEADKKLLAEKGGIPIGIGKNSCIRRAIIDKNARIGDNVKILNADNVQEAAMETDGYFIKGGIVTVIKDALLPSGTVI
T3 sequence (P55241 46-516 Q96G/D161G/A443R): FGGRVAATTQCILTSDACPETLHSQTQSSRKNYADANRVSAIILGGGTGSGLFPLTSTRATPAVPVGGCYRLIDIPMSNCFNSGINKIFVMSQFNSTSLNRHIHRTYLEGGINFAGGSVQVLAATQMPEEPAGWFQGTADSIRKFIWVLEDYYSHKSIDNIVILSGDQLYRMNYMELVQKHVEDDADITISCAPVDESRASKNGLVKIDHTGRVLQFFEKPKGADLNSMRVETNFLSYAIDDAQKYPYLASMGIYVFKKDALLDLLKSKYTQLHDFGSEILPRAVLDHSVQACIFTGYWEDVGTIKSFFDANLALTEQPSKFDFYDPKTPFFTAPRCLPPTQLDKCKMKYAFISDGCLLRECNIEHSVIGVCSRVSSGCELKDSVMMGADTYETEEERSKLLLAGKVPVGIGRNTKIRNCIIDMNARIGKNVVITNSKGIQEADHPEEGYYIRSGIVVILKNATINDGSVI
Procedure: Pi inhibition was carried out in both the presence and absence of 3-PGA with the Pi and substrate concentrations listed below.
Pi inhibition patterns in the presence and absence of 3PGA were also determined. Pi inhibition patterns were obtained by varying one substrate at several fixed concentrations of Pi, while holding the co-substrate at constant sub-saturating levels.

SH2-E [5] = target: T4, SH2-E (Zea mays, UniProt P55241+Q947C0, N131R/T142F/A160T/Q261S/A396S/V416I/C424V/S444A); assay: as above; format: biochemical; details: read-out: Km (mM), varied substrate ATP, Pi inhibition in the absence of 3-PGA
T4 construct: SH2-E with wild type BT2 (SH2-E/BT2-WT), E. coli, purified
T4 sequence (Q947C0 1-475): T3 sequence (Q947C0 1-475)
T4 sequence (P55241 46-516 N131R/T142F/A160T/Q261S/A396S/V416I/C424V/S444A): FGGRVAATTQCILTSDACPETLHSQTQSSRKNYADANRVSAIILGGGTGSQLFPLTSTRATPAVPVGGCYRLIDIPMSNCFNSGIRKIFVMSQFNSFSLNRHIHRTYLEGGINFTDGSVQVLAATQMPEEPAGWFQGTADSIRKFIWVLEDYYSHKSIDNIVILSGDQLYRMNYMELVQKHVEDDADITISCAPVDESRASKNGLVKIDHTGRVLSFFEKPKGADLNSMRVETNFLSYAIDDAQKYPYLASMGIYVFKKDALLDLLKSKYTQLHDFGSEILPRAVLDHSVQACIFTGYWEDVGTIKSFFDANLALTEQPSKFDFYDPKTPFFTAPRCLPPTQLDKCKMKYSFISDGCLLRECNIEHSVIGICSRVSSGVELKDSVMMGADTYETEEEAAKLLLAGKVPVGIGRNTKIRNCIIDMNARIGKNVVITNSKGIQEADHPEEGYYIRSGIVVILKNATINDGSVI

E123G, R331K = target: T5, E123G, R331K (Zea mays, UniProt P55241+Q947C0, E123G/R331K); assay: Activation constant from initial rates with varied 3-PGA (0-1 mM) at 2 mM ATP and 2 mM G-1-P, pH 7.4, 15 mM MgCl2, fitted to V = Vmin + Vmax*X/(Ka + X).; format: biochemical
T5 construct: BT2 variant with wild type SH2, E. coli, purified
Excerpt: (§2) All reactions were developed as above.

K403E = target: T6, K403E (Zea mays, UniProt P55241+Q947C0, K403E); assay: as above; format: biochemical
T6 construct: BT2 variant with wild type SH2, E. coli, purified
Excerpt: as §2

D242H = target: T7, D242H (Zea mays, UniProt P55241+Q947C0, D242H); assay: as above; format: biochemical
T7 construct: BT2 variant with wild type SH2, E. coli, purified
Excerpt: as §2

K403L = target: T8, K403L (Zea mays, UniProt P55241+Q947C0, K403L); assay: as above; format: biochemical
T8 construct: BT2 variant with wild type SH2, E. coli, purified
Excerpt: as §2

SH2-ISM [6] = target: T3, SH2-ISM; assay: as above; format: biochemical
Excerpt: as §2

SH2-E [7] = target: T4, SH2-E; assay: as above; format: biochemical
Excerpt: as §2

E123G = target: T9, E123G (Zea mays, UniProt P55241+Q947C0, E123G); assay: as above; format: biochemical
T9 construct: BT2 variant with wild type SH2, E. coli, purified
Excerpt: as §2

K403R [8] = target: T1, K403R; assay: as above; format: biochemical; set-up: BT2 variant with wild type SH2, E. coli, purified
Excerpt: as §2

T1 sequence (Q947C0 1-475 K403R): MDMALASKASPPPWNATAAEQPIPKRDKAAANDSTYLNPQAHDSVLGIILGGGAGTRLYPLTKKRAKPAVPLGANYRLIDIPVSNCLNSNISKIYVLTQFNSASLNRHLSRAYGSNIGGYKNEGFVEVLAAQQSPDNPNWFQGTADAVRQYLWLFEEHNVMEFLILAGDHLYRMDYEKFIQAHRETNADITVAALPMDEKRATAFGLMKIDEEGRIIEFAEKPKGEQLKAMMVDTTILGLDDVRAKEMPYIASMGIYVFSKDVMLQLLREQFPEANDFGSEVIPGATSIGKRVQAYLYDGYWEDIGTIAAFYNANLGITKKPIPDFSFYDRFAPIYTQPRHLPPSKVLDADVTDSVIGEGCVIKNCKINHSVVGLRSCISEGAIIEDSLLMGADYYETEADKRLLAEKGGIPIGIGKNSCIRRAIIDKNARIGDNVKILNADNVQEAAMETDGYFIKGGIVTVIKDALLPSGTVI
T1 sequence (P55241 46-516): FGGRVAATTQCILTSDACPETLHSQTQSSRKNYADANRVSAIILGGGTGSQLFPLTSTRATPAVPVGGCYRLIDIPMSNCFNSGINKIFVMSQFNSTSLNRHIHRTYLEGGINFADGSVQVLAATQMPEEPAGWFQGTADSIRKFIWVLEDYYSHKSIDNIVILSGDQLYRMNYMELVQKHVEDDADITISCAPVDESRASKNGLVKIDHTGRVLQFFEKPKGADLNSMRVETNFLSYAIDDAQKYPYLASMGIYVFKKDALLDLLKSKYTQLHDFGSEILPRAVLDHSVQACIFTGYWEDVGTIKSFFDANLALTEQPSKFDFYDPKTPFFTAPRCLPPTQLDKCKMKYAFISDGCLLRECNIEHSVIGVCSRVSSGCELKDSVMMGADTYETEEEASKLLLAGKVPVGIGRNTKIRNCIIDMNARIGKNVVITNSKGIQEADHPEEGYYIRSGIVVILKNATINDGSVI
T2 sequence (P55241 46-516, one chain of several): as the sequence (P55241 46-516) above
T6 sequence (Q947C0 1-475 K403E): as the sequence (Q947C0 1-475 K403R) above, with R403E counted along it
T6 sequence (P55241 46-516): as the sequence (P55241 46-516) above
T9 sequence (P55241 46-516): as above
T9 sequence (Q947C0 entry or part of it E123G): as the sequence (Q947C0 1-475 K403R) above, with E123G, R403K counted along it
T5 sequence (Q947C0 1-475 E123G/R331K): as the sequence (Q947C0 1-475 K403R) above, with E123G, R331K, R403K counted along it
T5 sequence (P55241 46-516): as the sequence (P55241 46-516) above
T8 sequence (Q947C0 1-475 K403L): as the sequence (Q947C0 1-475 K403R) above, with R403L counted along it
T8 sequence (P55241 46-516): as the sequence (P55241 46-516) above
T7 sequence (Q947C0 1-475 D242H): as the sequence (Q947C0 1-475 K403R) above, with D242H, R403K counted along it
T7 sequence (P55241 46-516): as the sequence (P55241 46-516) above

| SMILES | Km (K403R [1]) | Km (wt (SH2-WT/BT2-WT) [2]) | Km (wt (SH2-WT/BT2-WT) [3]) | Km (SH2-ISM [4]) | Km (SH2-E [5]) | 3-PGA Ka (activation constant) (E123G, R331K) | 3-PGA Ka (activation constant) (K403E) | 3-PGA Ka (activation constant) (D242H) | 3-PGA Ka (activation constant) (K403L) | 3-PGA Ka (activation constant) (SH2-ISM [6]) | 3-PGA Ka (activation constant) (SH2-E [7]) | 3-PGA Ka (activation constant) (E123G) | 3-PGA Ka (activation constant) (K403R [8]) |
| --- | --- | --- | --- | --- | --- | --- | --- | --- | --- | --- | --- | --- | --- |
| Nc1ncnc2c1ncn2[C@@H]1O[C@H](COP(=O)(O)OP(=O)(O)OP(=O)(O)O)[C@@H](O)[C@H]1O [ATP, adenosine 5'-triphosphate] | 75 ± 13 µM | 75 ± 18 µM | 4000 µM | 0.54 ± 0.057 mM | 0.97 ± 0.081 mM | – | – | – | – | – | – | – | – |
| O=C(O)[C@H](O)COP(=O)(O)O [3-PGA, 3-phosphoglycerate (3-phosphoglyceric acid)] | – | – | – | – | – | 0.183 ± 0.024 | 0.14 ± 0.015 | 0.077 ± 0.0077 | 0.41 ± 0.049 | 0.056 ± 0.008 | 0.070 ± 0.01 | 0.090 ± 0.023 | 0.22 ± 0.057 |

From paper PMC6300691, “Enhancement of Heat Stability and Kinetic Parameters of the Maize Endosperm ADP-Glucose Pyrophosphorylase by Mutagenesis of Amino Acids in the Small Subunit With High B Factors” (Frontiers in Plant Science, 2018)
